Test results: BindingDB's records for doi:10.1016/j.bmcl.2013.05.020 (Vanderbilt University Medical Center, 2013)
pIC50: −log10 of the molar value.

Target: Metabotropic glutamate receptor 1 (Homo sapiens, UniProt Q13255)
Assay: Negative allosteric modulation of human mGluR1 expressed in HEK293A cells assessed as inhibition of glutamate-induced calcium mobilization

Chain of Metabotropic glutamate receptor 1 (Q13255 whole entry): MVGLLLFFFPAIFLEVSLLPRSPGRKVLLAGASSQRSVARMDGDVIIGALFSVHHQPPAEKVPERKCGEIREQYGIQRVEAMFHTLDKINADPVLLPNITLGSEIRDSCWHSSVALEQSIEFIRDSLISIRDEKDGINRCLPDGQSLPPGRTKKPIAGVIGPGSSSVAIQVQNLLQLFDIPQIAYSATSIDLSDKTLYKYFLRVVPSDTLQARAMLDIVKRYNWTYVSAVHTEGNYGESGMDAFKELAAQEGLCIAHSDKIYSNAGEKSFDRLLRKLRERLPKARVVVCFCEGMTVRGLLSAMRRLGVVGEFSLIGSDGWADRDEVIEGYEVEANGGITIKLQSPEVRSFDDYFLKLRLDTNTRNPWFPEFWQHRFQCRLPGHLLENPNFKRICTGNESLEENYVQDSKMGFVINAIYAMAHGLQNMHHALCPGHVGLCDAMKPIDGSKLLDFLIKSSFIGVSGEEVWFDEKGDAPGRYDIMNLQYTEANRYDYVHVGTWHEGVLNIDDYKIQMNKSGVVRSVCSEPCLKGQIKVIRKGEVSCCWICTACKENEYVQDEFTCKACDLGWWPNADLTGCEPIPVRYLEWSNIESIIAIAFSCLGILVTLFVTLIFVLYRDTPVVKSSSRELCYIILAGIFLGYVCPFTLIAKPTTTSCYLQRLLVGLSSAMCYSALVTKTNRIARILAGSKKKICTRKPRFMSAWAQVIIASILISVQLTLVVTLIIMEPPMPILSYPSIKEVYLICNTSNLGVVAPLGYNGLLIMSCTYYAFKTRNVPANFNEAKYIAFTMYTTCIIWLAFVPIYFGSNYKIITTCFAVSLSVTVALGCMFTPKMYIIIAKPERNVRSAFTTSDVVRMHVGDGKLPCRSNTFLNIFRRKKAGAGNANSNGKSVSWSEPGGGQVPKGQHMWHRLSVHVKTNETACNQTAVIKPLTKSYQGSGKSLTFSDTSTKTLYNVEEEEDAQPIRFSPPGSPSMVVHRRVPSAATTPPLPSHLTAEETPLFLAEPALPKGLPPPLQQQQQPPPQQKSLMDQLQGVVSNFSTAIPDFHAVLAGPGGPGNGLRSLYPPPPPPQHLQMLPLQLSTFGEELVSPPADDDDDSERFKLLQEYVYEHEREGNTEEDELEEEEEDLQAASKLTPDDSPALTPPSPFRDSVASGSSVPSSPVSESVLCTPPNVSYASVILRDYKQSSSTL

| Compound | pIC50 |
| --- | --- |
| C[C@@H]1CN(C(=O)C23CC4CC(CC(C4)C2)C3)CCN1c1ccncc1 | < 4.50 |
| C[C@@H]1CN(C(=O)[C@H]2CC[C@H](C)CC2)CCN1c1ccccn1 | < 4.50 |
| C[C@@H]1CN(C(=O)C2CCCCC2)CCN1c1ccccn1 | < 4.50 |
| C[C@@H]1CN(C(=O)C(C)(C)C)CCN1c1ccccn1 | < 4.50 |
| C[C@@H]1CN(c2ccccn2)CCN1C(=O)C(C)(C)C | < 4.50 |
| C[C@@H]1CN(C(=O)C2CC2)CCN1c1ccccn1 | < 4.50 |
| C[C@@H]1CN(c2ccccn2)CCN1C(=O)C1CC1 | < 4.50 |
| C[C@@H]1CN(C(=O)C23C4C5C6C4C2C6C53)CCN1c1ccccn1 (stereo partly drawn) | < 4.50 |
